Data on one compound can be found in article PMC13045254, “Dual Targeting of DNA and EGFR by ZYH005 Induces DNA Damage and Mitotic Catastrophe in Glioblastoma” (MedComm, 2026).

The target in the assay is T1, epidermal growth factor receptor (EGFR) (Homo sapiens, UniProt P00533).
T1 construct: recombinant EGFR kinase domain
Put plainly: SPR with recombinant kinase domain; supported by CETSA, DARTS and LiP-MS. The class given is binding.

pKd: −log10 of the molar value.

T1 sequence (P00533 712-979 limits assumed): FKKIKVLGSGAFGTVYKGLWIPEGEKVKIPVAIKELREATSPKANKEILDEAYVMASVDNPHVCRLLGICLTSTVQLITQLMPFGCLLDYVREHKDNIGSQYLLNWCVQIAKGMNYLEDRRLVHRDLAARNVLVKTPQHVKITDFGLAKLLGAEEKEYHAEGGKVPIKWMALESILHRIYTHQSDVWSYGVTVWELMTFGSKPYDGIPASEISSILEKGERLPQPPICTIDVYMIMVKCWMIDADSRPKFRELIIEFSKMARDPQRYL

The term pKd denotes the negative decadic logarithm of the Kd, by convention in mol/L. Turning to `COc1ccc(CCn2c(=O)c3cc4c(cc3c3ccccc32)OCO4)cc1` [Z5, ZYH005], the negative logarithm of the Kd (pKd) is 4.71.
